Experimental findings from ChEMBL document CHEMBL4828707, “Discovery of phenyl-linked symmetric small molecules as inhibitors of the programmed cell death-1/programmed cell death-ligand 1 interaction” (Eur J Med Chem, 2021) are described below.

For data set [1], the target named is T1, Programmed cell death protein 1/Programmed cell death 1 ligand 1 (Homo sapiens, UniProt Q9NZQ7). As to the kind of experiment: (§1) Inhibition of Tag2-PD1/Tag1-PD-L1 (unknown origin) protein-protein interaction preincubated for 15 mins followed by addition of anti-Tag1-Eu3+ and anti-Tag2-XL665 measured after 2 hrs in dark by HTRF assay. The format is protein-complex assay. On the technique in general: In TR-FRET formats the signal depends on donor and acceptor labels being close together.

The nature of data set [2]: Cytotoxicity against human PBMC at 3 uM measured after 48 hrs by CCK8 assay. For orientation: Formazan colour is commonly taken as a measure of viable cells.
Data set [3] is described as follows: Cytotoxicity against human HPDE6c7 cells at 2 to 10 uM measured after 48 hrs by CCK8 assay. The format is cell-based. To be noted: hpde6c7, 48 h, dose 2-10 µM.
A further data set relates to L02. As to the kind of experiment: Cytotoxicity against human HL7702 cells at 2 to 10 uM measured after 48 hrs by CCK8 assay. Type of data set: cell-based. To be noted: l02, 48 h, dose 2-10 µM.
Data set [4] addresses T1, Programmed cell death protein 1/Programmed cell death 1 ligand 1. As to the kind of experiment: Inhibition of PD1/PDL1 protein-protein interaction in human Jurkat cells overexpressing PD1 co-cultured with human Hep3B cells expressing PDL1 protein assessed as increase of TCR-mediated luminiscence measured after 6 hrs by NFAT reporter assay. The format is cell-based. A general note: Reporter assays use an easily measured gene product as a stand-in for the process of interest.

Another data set has as its target hERG (KCNH2) (Homo sapiens, UniProt Q12809). As to the kind of experiment: Inhibition of human ERG expressed in HEK293 cells at 10 uM measured by whole cell patch-clamp assay. To be noted: HEK293 cells that express hERG. Type of data set: cell-based.
In data set [5] the target is T2, Programmed cell death protein 1/Programmed cell death 1 ligand 1 (Homo sapiens, UniProt Q15116+Q9NZQ7). The note with it: time 6.0 hrs.
Data set [6] addresses T2, Programmed cell death protein 1/Programmed cell death 1 ligand 1. Described as §1. The format is protein-complex assay.

Sequence of hERG (KCNH2) (Q12809 whole entry): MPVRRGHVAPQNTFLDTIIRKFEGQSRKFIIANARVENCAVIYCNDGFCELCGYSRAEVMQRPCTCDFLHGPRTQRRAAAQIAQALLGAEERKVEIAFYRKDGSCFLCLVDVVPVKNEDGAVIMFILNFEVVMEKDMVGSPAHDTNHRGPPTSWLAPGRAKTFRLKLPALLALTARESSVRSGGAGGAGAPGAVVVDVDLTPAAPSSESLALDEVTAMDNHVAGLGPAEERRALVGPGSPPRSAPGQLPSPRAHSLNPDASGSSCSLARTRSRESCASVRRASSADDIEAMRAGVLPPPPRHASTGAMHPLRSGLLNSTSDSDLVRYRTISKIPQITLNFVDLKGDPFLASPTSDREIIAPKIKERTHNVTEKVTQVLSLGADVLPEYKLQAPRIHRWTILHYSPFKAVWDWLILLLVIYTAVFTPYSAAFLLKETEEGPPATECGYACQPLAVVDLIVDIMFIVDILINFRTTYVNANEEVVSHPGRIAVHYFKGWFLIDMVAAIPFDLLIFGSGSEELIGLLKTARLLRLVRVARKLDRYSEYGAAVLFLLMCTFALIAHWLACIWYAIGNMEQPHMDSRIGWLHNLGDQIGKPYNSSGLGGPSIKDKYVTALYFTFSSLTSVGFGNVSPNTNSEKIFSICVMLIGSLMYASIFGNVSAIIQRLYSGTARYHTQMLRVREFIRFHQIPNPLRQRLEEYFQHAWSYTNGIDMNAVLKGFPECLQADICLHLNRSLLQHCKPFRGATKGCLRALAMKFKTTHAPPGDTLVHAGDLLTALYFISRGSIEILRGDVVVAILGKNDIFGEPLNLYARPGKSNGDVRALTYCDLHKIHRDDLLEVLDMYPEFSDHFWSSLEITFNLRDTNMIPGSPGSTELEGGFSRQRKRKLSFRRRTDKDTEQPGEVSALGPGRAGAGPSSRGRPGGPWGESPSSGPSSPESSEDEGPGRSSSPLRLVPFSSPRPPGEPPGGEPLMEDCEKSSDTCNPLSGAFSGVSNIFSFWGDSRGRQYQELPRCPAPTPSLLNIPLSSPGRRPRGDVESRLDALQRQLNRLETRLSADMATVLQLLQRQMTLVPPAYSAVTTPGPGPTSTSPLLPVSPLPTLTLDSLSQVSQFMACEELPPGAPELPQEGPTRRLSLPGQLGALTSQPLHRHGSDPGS
T2 sequence (Q15116 whole entry): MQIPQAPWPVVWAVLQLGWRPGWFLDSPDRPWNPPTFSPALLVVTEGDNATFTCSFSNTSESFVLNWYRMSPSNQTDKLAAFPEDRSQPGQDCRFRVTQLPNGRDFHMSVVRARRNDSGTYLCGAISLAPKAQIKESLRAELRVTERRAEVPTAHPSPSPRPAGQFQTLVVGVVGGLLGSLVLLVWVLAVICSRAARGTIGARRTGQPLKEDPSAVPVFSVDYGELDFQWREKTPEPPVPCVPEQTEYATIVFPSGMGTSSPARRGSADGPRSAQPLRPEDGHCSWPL
T2 sequence (Q9NZQ7 whole entry): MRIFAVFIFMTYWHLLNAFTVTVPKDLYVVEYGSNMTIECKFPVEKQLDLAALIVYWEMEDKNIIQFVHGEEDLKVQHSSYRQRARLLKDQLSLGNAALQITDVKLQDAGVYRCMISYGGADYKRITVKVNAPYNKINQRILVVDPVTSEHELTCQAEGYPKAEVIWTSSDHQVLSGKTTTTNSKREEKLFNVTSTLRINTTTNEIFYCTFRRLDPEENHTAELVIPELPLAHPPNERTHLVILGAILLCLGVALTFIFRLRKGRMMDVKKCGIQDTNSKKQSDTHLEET
T1 sequence (Q15116 whole entry): as the sequence (Q15116 whole entry) above
T1 sequence (Q9NZQ7 whole entry): as the sequence (Q9NZQ7 whole entry) above

One may read the IC50 as the concentration that inhibits the measured activity by half. In data set [1], `O=C(c1ccc(CNCCO)cc1)N1CCc2c(-c3cccc4c3CCN4C(=O)c3ccc(CNCCO)cc3)cccc21` gave an IC50 of 18.6 nM. As for `Cc1c(C(=O)Nc2ccc(CNCCO)cc2)cccc1-c1ccc2c(c1)OCCO2`, in data set [1], the IC50 is over 1000 nM.

As to `COc1cc(-c2cccc(-c3cccc(-c4ccc(CO)c(OC)c4)c3C)c2C)ccc1CO`, it took 481 nM to reach half-maximal inhibition in data set [1] (IC50). What is called EC50 is the concentration at which the effect is half-maximal. As usually defined, the inhibition is the drop in the measured response relative to a control, in per cent. `COc1cc(-c2cccc(-c3cccc(-c4ccc(CNC(CO)C(=O)O)c(OC)c4)c3C)c2C)ccc1CNC(CO)C(=O)O` (stereo not drawn): half-maximal inhibition in data set [1] (IC50) required 3.9 nM. Besides, the Activity entry (in data set [2]; in data set [3]; with L02) was “Non-Toxic” in each case. The concentration for a half-maximal effect (EC50) in data set [4] is 775 nM. The inhibition at 10 µM against hERG (KCNH2) was -0.67%. Also, the RLU in data set [5] stood at 30600. As for `Cc1c(Nc2cc(-c3ccc(CNCCO)cc3)ccn2)cccc1-c1ccc2c(c1)OCCO2`, the IC50 in data set [1] was over 1000 nM. On the same count and under the same terms, to `COc1cc(-c2cccc(-c3cccc(-c4ccc(CNC5CCOCC5)c(OC)c4)c3C)c2C)ccc1CNC1CCOCC1` belongs 34.4 nM. On to `Cc1c(-c2ccc(CNCCO)cc2)cccc1-c1ccc2c(c1)OCCO2`, for which half-maximal inhibition in data set [1] (IC50) was put at 16.2 nM. For the same molecule, at hERG (KCNH2), the inhibition at 10 µM amounted to 98%. The molecule `Cc1c(NC(=O)c2ccc(CNCCO)nc2)cccc1-c1ccc2c(c1)OCCO2` returned an IC50 in data set [1] of over 1000 nM. Regarding `Cc1c(-c2ccc3c(c2)OCCO3)cccc1N1CCN(c2cccc(CNCCO)n2)C1=O`, in data set [1], the IC50 was over 1000 nM. In the case of `O=C(c1ccc(CNCCO)cc1)n1ccc2c(-c3ccc4c(c3)OCCO4)cccc21`, the IC50 in data set [1] was over 1000 nM.

On to `COc1cc(-c2cccc(-c3ccc4c(c3)OCCO4)c2C)ccc1CNCCO`, for which the IC50 entry in data set [6] is “Not Active”. On hERG (KCNH2), the inhibition at 10 µM was 4.71%.

Molecule `Cc1c(-c2ccc3c(c2)OCCO3)cccc1N1CCN(c2ccc(CNCCO)cn2)C1=O` came in with an IC50 in data set [1] of over 1000 nM. `COc1cc(-c2cccc(-c3cccc(-c4ccc(CNC(CO)CO)c(OC)c4)c3C)c2C)ccc1CO` came in with an IC50 in data set [1] of 48.7 nM. In data set [1], `Cc1c(NC(=O)c2ccc(CNCCO)cn2)cccc1-c1ccc2c(c1)OCCO2` gave an IC50 of 5.04 nM. Take `Cc1c(-c2ccc3c(c2)OCCO3)cccc1N(C)C(=O)c1ccc(CNCCO)cn1`: inhibition in data set [1] was half-maximal at 764 nM (IC50). The molecule `Cc1c(-c2ccc(CNCCO)cn2)cccc1-c1cccc(-c2ccc(CNCCO)cn2)c1C` gave an IC50 in data set [1] of over 1000 nM. Take `Cc1c(NC(c2ccc(CNCCO)cc2)C(F)(F)F)cccc1-c1ccc2c(c1)OCCO2` (stereo not drawn): the IC50 in data set [1] is over 1000 nM. With `COc1cc(-c2cccc(-c3cccc(-c4ccc(CNCC5CCC(=O)N5)c(OC)c4)c3C)c2C)ccc1CNCC1CCC(=O)N1` (stereo not drawn), inhibition in data set [1] was half-maximal at 139 nM (IC50). Regarding `COc1cc(-c2cccc(-c3cccc(-c4ccc(CNCCO)c(OC)c4)c3C)c2C)ccc1CNCCO`, in data set [1], 48.6 nM corresponded to half-maximal inhibition (IC50). The same measure, in the same setting: to `Cc1c(-c2ccc(CNCCO)cc2)cccc1-c1cccc(-c2ccc(CNCCO)cc2)c1C` belongs 45.6 nM. Turning to `Cc1c(-c2ccc3c(c2)OCCO3)cccc1N1Cc2cc(CNCCO)ccc2C1=O`, in data set [1], the IC50 was over 1000 nM.

As to `Cc1c(-c2ccc3c(c2)OC(=O)N(CC(=O)O)C3)cccc1-c1ccc2c(c1)OCCO2`, the IC50 entry in data set [6] is on record as “Not Active”.

Consider `Cc1c(-c2ccc3c(c2)OCCO3)cccc1-c1ccc(CNCCO)s1`, for which the IC50 entry in data set [6] is reported as “Not Active”. With `COc1cc(-c2cccc(-c3cccc(-c4ccc(CN5CC(C(=O)O)C5)c(OC)c4)c3C)c2C)ccc1CN1CC(C(=O)O)C1`, inhibition in data set [1] was half-maximal at 4.23 nM (IC50). The Activity result (in data set [2]; in data set [3]; in the data set with L02) was “Non-Toxic” each time. For the same molecule, in data set [4], the EC50 turned out to be 104 nM. Besides, the inhibition at 10 µM against hERG (KCNH2) turned out to be 3.93%. For the same molecule, in data set [5], the RLU was found to be 35800.

On to `O=C(c1ccc(CNCCO)cc1)N1CCCc2c(-c3ccc4c(c3)OCCO4)cccc21`, for which the IC50 in data set [1] was over 1000 nM. `Cc1c(-c2ccc3c(c2)OCCO3)cccc1N1CCN(c2ncc(CNCCO)s2)C1=O` showed a half-inhibitory concentration (IC50) in data set [1] of over 1000 nM.

In turn, `Cc1c(-c2ccc3c(c2)OCCO3)cccc1N1CCN(c2cccc(CNCCO)c2)C1=O` showed an IC50 in data set [1] of over 1000 nM. Still for that read-out and setting: under `Cc1c(-c2ccc3c(c2)OCCO3)cccc1-c1ccc(CNCCO)cn1` stands 19.6 nM.

The molecule `Cc1c(NC(=O)c2ccc(CNCCO)cc2)cccc1-c1ccc2c(c1)OCCO2` showed an IC50 in data set [1] of over 1000 nM.

The molecule `COc1cc(-c2cccc(-c3cccc(-c4ccc(CNC(CO)CO)c(OC)c4)c3C)c2C)ccc1CNC(CO)CO` yielded an IC50 in data set [1] of over 1000 nM. Take `Cc1c(NS(=O)(=O)c2ccc(CNCCO)cc2)cccc1-c1ccc2c(c1)OCCO2`: the IC50 in data set [1] is over 1000 nM. `Cc1c(-c2ccc3c(c2)CCCN(CCO)C3)cccc1-c1ccc2c(c1)OCCO2`: the IC50 entry in data set [6] is “Not Active”. Take `Cc1c(-c2ccc3c(c2)OCCO3)cccc1N1CCN(c2ccc(CNCCO)cc2)C1=O`: in data set [1], the IC50 was over 1000 nM.

Consider `COc1cc(-c2cccc(-c3cccc(-c4ccc(CNCC(O)C(=O)O)c(OC)c4)c3C)c2C)ccc1CNCC(O)C(=O)O` (stereo not drawn), for which, in data set [1], the half-inhibitory concentration (IC50) came to 4.01 nM. Moreover, the Activity entry (in data set [2]; in data set [3]; with L02) was “Non-Toxic” each time. Also, the EC50 in data set [4] came out at 376 nM. For the same molecule, the inhibition at 10 µM against hERG (KCNH2) was found to be 7.72%. This molecule also yielded an RLU in data set [5] of 27000.

Regarding `Cc1c(-c2ccc3c(c2)NCC(=O)N(CCO)C3)cccc1-c1ccc2c(c1)OCCO2`, the IC50 result in data set [6] is given as “Not Active”. With `O=C(c1ccc(CNCCO)cc1)n1ccc2c(-c3cccc4c3ccn4C(=O)c3ccc(CNCCO)cc3)cccc21`, inhibition in data set [1] was half-maximal at 309 nM (IC50). The same measure, in the same setting: under `O=C(c1ccc(CNCCO)cc1)N1CCc2c(-c3ccc4c(c3)OCCO4)cccc21` stands 150 nM; under `COc1cc(-c2cccc(-c3cccc(-c4ccc(CN5CCCCC5C(=O)O)c(OC)c4)c3C)c2C)ccc1CO` (stereo not drawn), 472 nM.

For the molecule `Cc1c(-c2ccc3c(c2)OCCO3)cccc1-c1ccc(CNCCO)o1`, inhibition in data set [1] was half-maximal at 191 nM (IC50). The same measure, in the same setting: under `Cc1c(-c2ccc3c(c2)OCCO3)cccc1-c1nnc(-c2ccc(CNCCO)cc2)o1` stands over 1000 nM; under `Cc1c(Nc2cccc(-c3ccc(CNCCO)cc3)n2)cccc1-c1ccc2c(c1)OCCO2`, over 1000 nM. Consider `Cc1c(-c2ccc3c(c2)OC(=O)N(CCO)C3)cccc1-c1ccc2c(c1)OCCO2`, for which, in data set [6], the IC50 entry is given as “Not Active”.

In data set [1], `COc1cc(-c2cccc(-c3cccc(-c4ccc(CNC5CCCC5O)c(OC)c4)c3C)c2C)ccc1CNC1CCCC1O` (stereo not drawn) yielded an IC50 of 36.4 nM.
